Measured values published in patent US20240269125A1, “METHODS OF TREATING CORONAVIRUS INFECTIONS BY CO-ADMINISTERING AN FKBP LIGAND AND AN ANTIVIRAL AGENT” (priority 2020, published 2024).
Like-named read-outs stand apart in the source and are kept apart here.

Key:
in vitro [1] = details: African green monkey
[2] = system: SARS CoV-2 (USA-WA1/2020); experiment: organism not typed; format: cell-based
[3] = system: SARS COV-2 (USA_WA1/2020); format: cell-based; details: Example 10; remdesivir alone up to 6,666.667 nM; FK1706 alone up to 60,000 nM
[4] = system: SARS CoV-2 (USA-WA1/2020); experiment: organism not typed; format: cell-based; details: for reduction in SARS COV-2 virus: Example 6
Vero E6 cells = details: Table 1, Example 6; 50% cell death in absence of virus, day 4
in vitro [5] = details: African green monkey, TC50, Table 1, Example 6
[6] = TC50, Table 2, Example 7, 50% cell death in absence of virus, day 3
[7] = TC50, Table 4, Example 9, single conc. (sub-therapeutic antiviral alone)
[8] = Example 9, antiviral alone at sub-therapeutic level (molnupiravir 0.3 μM; remdesivir 3 μM)

With O=C(C(=O)N1CCCC[C@H]1C(=O)NCCCc1ccccc1)c1ccccc1 [ElteN378] the CC50 (in vitro [1]; [6]) was > 30 µM, the “reduction in SARS COV-2 virus” value ([2]; Example 7, ElteN378 0.12-30 μM, alone or co-administered with fixed antiviral) was 0-7% and the EC50 ([2]; Vero C1008, 72 h, Table 2, Example 7, Vero E6, concentration inhibiting CPE by 50%, day 3, read-out: EC50) was > 30 µM.
In the case of CO[C@H]1C[C@@H](C)C/C(C)=C/[C@@H](CC(C)=O)C(=O)C[C@H](O)[C@@H](C)C(/C(C)=C/[C@@H]2CC[C@@H](O)[C@H](OC)C2)OC(=O)C2CCCCC2C(=O)C(=O)[C@]2(O)O[C@H]1[C@@H](OC)C[C@H]2C (some centres unmarked) [FK1706], the “antiviral activity as single agent” value [3] is reported as “no significant antiviral activity”, the CC50 (in vitro [1]; TC50, Table 3, Example 8, day 3) is reported as > 90 µM and the “reduction in SARS COV-2 virus” value ([4]; FK1706 11-90 μM, alone or co-administered with fixed antiviral) is reported as 0-7%. The EC50 ([4]; Vero C1008, 96 h, Table 1, Example 6, Vero E6, concentration inhibiting CPE by 50%, day 4, read-out: EC50) was > 90 µM, the TC50 (Vero E6 cells) was >90 µM and the “reduction in SARS COV-2 virus” value ([2]; Example 8, FK1706 alone 2.85-90 μM) was 0-10%. The EC50 ([2]; Vero C1008, 72 h, Table 3, Example 8, Vero E6, day 3, read-out: EC50) was > 90 µM.
For CCC(C)(C)C(=O)C(=O)N1CCC[C@H]1C(=O)O [GPI-1485], the CC50 (in vitro [1]; TC50, Table 4, Example 9, day 3) was > 320 µM, the “reduction in SARS COV-2 virus” value ([2]; Example 9, GPI-1485 40-320 μM, alone or co-administered with fixed antiviral) was 0-6% and the EC50 ([2]; Vero C1008, 72 h, Table 4, Example 9, Vero E6, day 3) was > 320 µM.
For CC(C)C(=O)OC[C@H]1O[C@@H](n2ccc(=NO)[nH]c2=O)[C@H](O)[C@@H]1O [Molnupiravir, ((2R,3S,4R,5R)-3,4-dihydroxy-5-(4-(hydroxyimino)-2-oxo-3,4-dihydropyrimidin-1(2H)-yl)tetrahydrofuran-2-yl)methyl isobutyrate], the CC50 (in vitro [1]; TC50, Table 3, Example 8, single conc. (0.3 μM molnupiravir alone)) was > 0.3 µM, the CC50 (in vitro [1]; [7]) was > 0.3 µM and the “reduction in SARS COV-2 virus” value ([2]; Example 8, molnupiravir alone 0.3 μM) was 4-13%. The “reduction in SARS COV-2 virus” value [2, 8] was 4-13%, the EC50 ([2]; Table 3, Example 8, single conc. (0.3 μM molnupiravir alone), read-out: EC50) was > 0.3 µM and the EC50 ([2]; Table 4, Example 9, single conc. (sub-therapeutic antiviral alone), read-out: EC50) was > 0.3 µM.
In the case of CCC(CC)COC(=O)[C@H](C)N[P@](=O)(OC[C@H]1O[C@@](C#N)(c2ccc3c(N)ncnn23)[C@H](O)[C@@H]1O)Oc1ccccc1 [Remdesivir], the CC50 (in vitro [1]; [6]) is reported as > 100 µM, the CC50 (in vitro [1]; TC50, Table 2, Example 7, single conc. (sub-therapeutic antiviral alone)) is reported as > 3 µM and the CC50 (in vitro [1]; [7]) is reported as > 0.3 µM. For the same compound, the EC50 [4] was > 3 µM, the “reduction in SARS COV-2 virus” value ([4]; antiviral alone at sub-therapeutic level (remdesivir 3 μM; M128533 1 μg/mL)) was 5-14% and the EC50 ([4]; Vero C1008, 96 h) was 3.63 µM. For the same compound, the CC50 (in vitro [5]; 50% cell death in absence of virus, day 4) was > 100 µM, the CC50 (in vitro [5]; single conc. (sub-therapeutic antiviral alone)) was > 3 µM and the “reduction in SARS COV-2 virus” value ([2]; Example 7, antiviral alone at sub-therapeutic level (remdesivir 3 μM; M128533 1 μg/mL)) was 2-19%. The “reduction in SARS COV-2 virus” value [2, 8] was 20-30%, the EC50 ([2]; Table 2, Example 7, single conc. (sub-therapeutic antiviral alone)) was > 3 µM and the EC50 ([2]; Table 4, Example 9, single conc. (sub-therapeutic antiviral alone)) was > 0.3 µM. The EC50 ([2]; Vero C1008, 72 h, Table 2, Example 7, Vero E6, concentration inhibiting CPE by 50%, day 3) was 7.31 µM.
